These results are taken from US20260199535A1, “PCTA derivatives, conjugates thereof and uses thereof” (NOVARTIS AG, priority 2022, published 2026).

Read-outs that look alike come from different tables or passages of the source.

The conditions of series [1]: crosslinker bond, 12-membered ring, CH3CN, 60.0 °C.
The nature of series [2]: Buffer stability of Example 17 radiolabeled with ^177LuCl3. It counts as physicochemical. The following applies: ^177Lu-labeled, formulation diluted with PBS, RCP at t=0 93%. How it is done:
To a mixture of sodium acetate in water (35.0 μL, 1.5 M), ascorbic acid in H2O (35.00 μL, 0.04 M), ethanol (58.5 μL) and acetic acid (1.5 μL) was added [^177Lu]LuCl3 ([…], 0.04 M HCl, 58.2 MBq). A solution of (((1S)-5-((2R)-2-amino-3-((2,5-dioxo-1-(4-(3,6,9-tris(carboxymethyl)-3,6,9-triaza-1(2,6)-pyridinacyclodecaphane-4-yl)butyl)pyrrolidin-3-yl)thio)propanamido)-1-carboxypentyl)carbamoyl)-L-glutamic acid (7.9 μL) of a 0.2 mM in water was added. After shaking (450 rpm) at 95° C. for 15 min, the reaction mixture was left cooling down for few minutes. The solution was diluted with 385 μl of PBS to keep the final formulation with EtOH below 9%. The radiochemical purity and stability were assessed using HPLC-1 conditions: Waters; column: phenomenex Luna; particle size 2.5 μm; size: 4.6×100 mm; flow rate: 1 mL/min; mobile phase A: H2O+0.1% TFA and B: CH3CN; gradient: 10 to 80% solvent B in 9 min.

A short description of series [3]: Buffer stability of Example 17 radiolabeled with ^68GaCl3. It counts as physicochemical. The conditions noted are these: ^68Ga-labeled, sodium acetate/acetic acid reaction buffer, t=4 hours; RCP at t=0 75%. How it is done: A solution of sodium acetate trihydrate in water 1.5 M (740.0 μL), acetic acid (260.0 μL) and (((1S)-5-((2R)-2-amino-3-((2,5-dioxo-1-(4-(3,6,9-tris(carboxymethyl)-3,6,9-triaza-1(2,6)-pyridinacyclodecaphane-4-yl)butyl)pyrrolidin-3-yl)thio)propanamido)-1-carboxypentyl)carbamoyl)-L-glutamic acid (2 mM; 1.907 mg/mL; […]) were added to a 8 mL glass V-vial. This vial was sealed, the vacuum needle and the ^68Ga/HCl 0.1M needle were connected to the vial. The gallium generator was eluted to the reaction vial (approximately 260 MBq [^68Ga]GaCl3 in HCl 0.1M, 1.1 mL). The vacuum needle and the ^68Ga/HCl 0.1M needle were disconnected from the reaction vial. After shaking (600 rpm) at 45° C. for 30 min, the reaction mixture was left cooling down for few minutes. The radiochemical purity and stability were assessed using HPLC-1 conditions: Waters; column: Phenomenex Luna; particle size 2.5 μm; size: 4.6×100 mm; flow rate: 1 mL/min; mobile phase A: H2O+0.1% TFA and B: CH3CN; gradient: 10 to 80% solvent B in 9 min. RCP at t=0, 75% and stability t=4 hours, 74%.

For series [4] the following is noted: crosslinker bond; 12-membered ring; intermediate G (1 eq)/DIPEA (5 eq); CH3CN; 15.6 mM; 60.0 °C.

Turning to `CC(C)(C)OC(=O)C[C@@H](NCCOCCN[C@H](CC(=O)OC(C)(C)C)c1ccccn1)C(=O)OC(C)(C)C`, the ring closure, isolated yield in series [1] (the molecule shown is the open-chain precursor, methyl 2,6-bis(bromomethyl)isonicotinate (1 eq)/DIPEA (5 eq), 20.9 mM) worked out at 48.7%.

Regarding “Tetra-tert-butyl 2,2′-(1^4-(3-((tert-butoxycarbonyl)amino)propoxy)-3,7-diaza-1(2,6)-pyridina-5(1,3)-benzenacyclooctaphane-3,7-diyl)(2R,2′R)-disuccinate”, the ring closure, isolated yield in series [1] (2,6-bis(bromomethyl)pyridine (1 eq)/DIPEA (5 eq), 32.6 mM) was determined as 55.3%.

“Tetra-tert-butyl 2,2′-(1^4-(methoxycarbonyl)-6-oxa-3,9-diaza-1(2,6)-pyridinacyclodecaphane-3,9-diyl)(2R,2′R)-disuccinate”: the ring closure, isolated yield in series [1] (methyl 2,6-bis(bromomethyl)isonicotinate (1 eq)/DIPEA (5 eq), 17.9 mM) was found to be 57.1%.

`N[C@@H](CSC1CC(=O)N(CCCCC2CN(CC(=O)O)CCN(CC(=O)O)Cc3cccc(n3)CN2CC(=O)O)C1=O)C(=O)NCCCC[C@H](NC(=O)N[C@@H](CCC(=O)O)C(=O)O)C(=O)O` (stereo partly drawn) [Example 17, (((1S)-5-((2R)-2-amino-3-((2,5-dioxo-1-(4-(3,6,9-tris(carboxymethyl)-3,6,9-triaza-1(2,6)-pyridinacyclodecaphane-4-yl)butyl)pyrrolidin-3-yl)thio)propanamido)-1-carboxypentyl)carbamoyl)-L-glutamic acid]: the “stability (radiochemical purity by HPLC)” value was 94% in series [2] (t=4 hours), 95% in series [2] (t=8 hours), 94% in series [2] (t=24 hours) and 74% in series [3].

Consider “Tri-tert-butyl 2,2′,2″-(1^4-(3-((tert-butoxycarbonyl)amino)propoxy)-3,6,9-triaza-1(2,6)-pyridinacyclodecaphane-3,6,9-triyl)(2S,2′S,2″S)-tripropionate”, for which the ring closure, yield after HPLC in series [4] came out at 52%.
